In patent US12036224B2, “Formulations, methods, kits, and dosage forms for treating atopic dermatitis and for improved stability of an active pharmaceutical ingredient” (Libertas Bio, Inc., priority 2017, dated 2024):
Entries after “also recorded” stand apart in the source; their conditions may differ.

Assays:
[1] = test system: subjects with moderate-to severe atopic dermatitis; assay: Phase 1b study in atopic dermatitis: safety and tolerability; format: in vivo, human
Experimental: (§1) The study conducted was a randomized, double-blind, placebo-controlled, multicenter, sequential dose escalation study in subjects with moderate-to severe atopic dermatitis. The study included a screening period (up to 30 days) and a treatment period for 4 weeks with a 14 day follow up period that concluded with an end-of-study visit. Three sequential cohorts of 20, 40 and 80 mg QD were evaluated. At each dose level a total of 12 subjects were enrolled with 9 subjects receiving Compound 1, and 3 subjects receiving matching placebos.
Assessment of safety: Safety was assessed by AEs, vital signs, 12-lead ECG, physical examination, and laboratory safety assessments.

[2] = test system: subjects with moderate-to severe atopic dermatitis; assay: Phase 1b study in atopic dermatitis: efficacy (EASI, IGA, pruritus NRS); format: in vivo, human; settings: for EASI50 / EASI75: once daily, after 4 weeks; for average decrease in EASI / average decrease in Pruritis (Itch) Numeric Rating Scale (NRS): week 4
Experimental: as §1
Upon signing the informed consent, the each subject underwent screening assessments from Day −30 to Day −1 prior to study drug administration. On Day 1 (baseline), eligible subjects were randomized, subjected to the Day 1/baseline assessments and received Compound 1 at 20, 40 or 80 mg or placebo, dependent on cohort and randomization schedule. At this visit, PK/PD samples were collected at predose and up to 8 hours (or up to 12 hours at selected sites). Subjects were monitored in clinic for 2 hours following the first study drug administration. Subjects returned to the clinic on Day 2 for PK and PD samples (24 hours post dose).
Pre-dose PK and PD samples were collected on Days 8 and 29 (last day of treatment). On Day 15, PK/PD samples were also collected at pre-dose and up to 8 hours post-dose and subjects returned on Day 16 for PK and PD samples (24 hours post dose). Subjects came in for additional safety assessments on Days 8, 22 and 29, as well as at the end of the follow up period (Day 43). Disease assessments were conducted on Days 1, Day 15 and Day 29.
Compound 1 was administered orally at doses of 20, 40 and 80 mg qd. Compound 1 was made available in 5-mg, 20-mg, and 50-mg strength tablets.
Assessment of efficacy variables: Preliminary efficacy was assessed by changes in the following assessments between Day 1 (baseline) and Days 15 and 29: IGA, EASI, 5-D Pruritus scale, Pruritus Numeric Rating Scale, % BSA involvement of AD, and skin microbiome analysis
The IGA is an assessment scale used in clinical studies to determine severity of AD and clinical response to treatment based on a 5-point scale ranging from 0 (clear) to 4 (severe) (18). The IGA score was assessed at screening, day 1/baseline (pre-dose), and days 15, 29, 43 or early termination.
The Pruritus NRS is a single-question assessment tool that is used to assess the patient's worst itch as a result of AD in the […]. Subjects complete the patient recorded outcome once daily. Patient compliance on the pruritus NRS is followed at each clinic visit. Subjects were instructed on daily reporting at the Baseline visit and are queried for compliance at every clinic visit. Subjects completed the rating scale daily through the last study visit using the scale provided below.
The Eczema Area and Severity Index (EASI) is a validated measure used in clinical practice and clinical trials to assess the severity and extent of AD. Four AD disease characteristics are assessed for severity by the investigator or designee on a scale of “0” (None) through “3” (severe). In addition, the area of AD involvement is assessed as a percentage by body area of head, trunk, upper and lower extremities and converted to a score of 0 to 6. Subjects were subjected to this assessment at the following visits: screening, day 1/baseline (pre-dose), and days 15, 29, 43 or early termination.
Methods: Patients were randomized 1:3 placebo or Compound 1 at 20, 40 or 80 mg once daily for 4 weeks (n=36). Inclusion criteria were Eczema Area and Severity Index (EASI) ≥16, body surface area (BSA) involvement ≥10% and an Investigator's Global Assessment (IGA) of ≥3 at baseline visit. Study objectives included safety/tolerability, efficacy and pharmacokinetic measurements. No concomitant administration of topical corticosteroids or other immunosuppressants was permitted during or prior to study.

[3] = Phase 1/2 trial in solid tumors and hematologic malignancies: pharmacokinetics; format: in vivo, human
Experimental: Methods: Phase 1/2 clinical trial in patients with solid tumors and hematologic malignancies evaluates escalating oral doses of the formulation disclosed herein at 10, 20, 30, 40, 50, 75 and 100 mg BID and 80 and 120 mg QD mg (NCT02440685). Phase 1 allows patients with solid tumors or hematologic malignancies; Phase 2 allows only patients with diffuse large B-Cell lymphoma (DLBCL), follicular lymphoma (FL) or mantle cell lymphoma (MCL). Endpoints include safety, tolerability, pharmacokinetics, serum markers of inflammation, and response using RECIST or Lugano Classification System, […]

[4] = HCl stress study; format: physicochemical
From the text: Analytical studies for 2-(1-(4-((4-(4-hydroxypiperidin-1-yl)phenyl)amino)-5-oxo-5,6-dihydropyrimido[4,5-d]pyridazin-2-yl)piperidin-4-yl)acetonitrile are provided below in Tables 1-3: Table 1 provides the results of an HCl pH dependent solubility profile study, Table 2 provides the results of an HCl solubility profile in organic solvents, and Table 3 provides the results of an HCl stress study.

[5] = molecular target: SYK (Homo sapiens, UniProt P43405); assay: Pre-clinical kinase inhibition, SYK; format: biochemical; settings: pre-clinical studies
From the text: A formulation of the disclosure comprising 2-(1-(4-((4-(4-hydroxypiperidin-1-yl)phenyl)amino)-5-oxo-5,6-dihydropyrimido[4,5-d]pyridazin-2-yl)piperidin-4-yl)acetonitrile comprises a potent inhibitor of Spleen Tyrosine Kinase (SYK) and Janus Kinases (JAK).

[6] = test system: IL-17-SYK mediated CCL20 release, human keratinocytes; assay: Inhibition of IL17 mediated CCL20 release in keratinocytes; format: cell-based; settings: single donor, n=3
Experimental: In FIG. 12, each bar represents mean and SEM for 3 replicates (n=3) of a single donor. FIG. 13 is a graph showing average weekly change in pruritus (NRS) for a placebo, and Compound 1 in the doses of 20 mg, 40 mg and 80 mg.

[7] = Day 1 to Day 29, 20, 40 and 80 mg

## N#CCC1CCN(c2nc(Nc3ccc(N4CCC(O)CC4)cc3)c3c(=O)[nH]ncc3n2)CC1 [Compound 1, 2-(1-(4-((4-(4-hydroxypiperidin-1-yl)phenyl)amino)-5-oxo-5,6-dihydropyrimido[4,5-d]pyridazin-2-yl)piperidin-4-yl)acetonitrile]
[1]; in vivo
  changes in chemistry lab parameters: No clinically significant changes in chemistry lab parameters except asymptomatic, mild-to-moderate transient elevations of CPK
  changes in hematologic lab parameters including platelets, neutrophils and lymphocytes: No clinically significant changes
  changes in lipid profile: No changes in lipid profile
  serious infections or thromboembolic events: No serious infections or thromboembolic events occurred
[1]; patients with moderate to severe atopic dermatitis, 20, 40, 80 mg once daily
  tolerability: well tolerated; also recorded: very well tolerated at all dose levels
[1]; predominantly Day 1
  most common adverse events: transient, mild headache and nausea
[2]; 20 mg cohort
  EASI50: 29%
  EASI75: 0%
  average decrease in EASI: 21%
  average decrease in Pruritis (Itch) Numeric Rating Scale (NRS): 15%
[2]; 40 mg cohort
  EASI50: 100%
  EASI75: 63%
  average decrease in EASI: 79%
  average decrease in Pruritis (Itch) Numeric Rating Scale (NRS): 47%
[2]; 80 mg cohort, Day 2
  reduction in itch: ~45%
[2]; 80 mg cohort
  EASI50: 88%
  EASI75: 50%
  average decrease in EASI: 70%
  average decrease in Pruritis (Itch) Numeric Rating Scale (NRS): 71%
[2]; 4 weeks
  overall efficacy in moderate to severe AD (in words): clear efficacy; also recorded: robust activity in EASI after 4 weeks
[2]; 20, 40 and 80 mg once daily
  change in pruritus / patient reported itch (in words): early decrease in pruritis; also recorded: significant reduction in patient reported itch was observed as early as 2nd day of treatment; also recorded: early improvements in pruritus
[2]; 40 and 80 mg cohorts
  IGA assessments, subjects reaching 0-1: up to 38%
[2]; [7]
  subjects reached EASI90: 3 subjects
  subjects with 100% clearance: 2 subjects
[3]; 80 mg QD
  systemic exposure (in words): High systemic exposure
[3]; human, in vivo, steady-state, 40 mg BID, oral
  half-life: 1080 min
[3]; human, in vivo, steady-state, 40 mg BID, oral, read-out: AUC (0-12 h)
  AUC(0-t): 6.3 µM·h
[3]; steady-state, 40 mg BID, oral
  Cmax: 700 nM
[4]; 1N HCl, rt, 24 hr
  % API based on Peak Area %: 100.00%
[4]; 1N NaOH, rt, 24 hr
  % API based on Peak Area %: 99.54%
[4]; 3% H2O2, rt, 30 hr
  % API based on Peak Area %: 83.00%
[4]; 80° C., 24 hr
  % API based on Peak Area %: 99.93%
[4]; UV, 23 hr
  % API based on Peak Area %: 99.80%
[5]
  IC50 against SYK: low nM
[6]
  inhibition of IL-17-SYK mediated CCL20 release: inhibits IL-17-SYK mediated CCL20 release, from human keratinocytes, at levels similar to IL17 neutralizing antibodies
